# Measured values published in PMC3976407, “Inhibition of Fatty Acid Binding Proteins Elevates Brain Anandamide Levels and Produces Analgesia” (PLoS ONE, 2014).
# Tests used:
# FABP7 = FABP7 (Homo sapiens, UniProt O15540); assay: NBD-stearate fluorescence displacement binding
# Procedure: Inhibitory constant (Ki) values were elucidated utilizing NBD-stearate fluorescence displacement as described previously [9], [31]. The tests were performed in 96-well plates containing inhibitors (0.1 – 50.0 μM), FABP, and NBD-stearate. Fluorescence intensity was measured with a FLUOstar OPTIMA spectrofluorometer with excitation and emission wavelengths of 460 and 544 nm, respectively.
# [1] = test system: formalin-induced nociception in mice; assay: Formalin test; type: in vivo, mouse; conditions: 20 mg/kg, i.p.
# Procedure: Mice were habituated to the observation chamber (Plexiglas box, 25 cm×25 cm×25 cm) for 30 min prior to formalin injection. Mice were administered FABP inhibitors 60 min prior to formalin. The animals subsequently received an injection of formalin (2.5% in saline, 20 μl) into the plantar surface of the right hind paw using a 30 gauge needle and were immediately placed back into the observation chamber and nocifensive behavior (time spent licking or biting the paw) was recorded for 60 min. Nocifensive behavior was scored during the first phase (0–5 min) and the second phase (∼15–45 min) of the formalin test.
# [2] = test system: brain endocannabinoid levels; assay: Lipid quantification of brain NAEs and 2-AG; type: in vivo; conditions: mouse, 20 mg/kg, i.p.
# Procedure: Quantification of endogenous NAEs and 2-AG were performed as previously described with minor modifications. Mice were rapidly euthanized by decapitation and their brains flash frozen in liquid nitrogen. The brains were subsequently thawed, weighed, and homogenized in 8 ml of 2∶1∶1 CHCl3:MeOH:Tris (50 mM, pH 8) in the presence of 4 ng d4-PEA, 4 ng d2-OEA, 400 pg d4-AEA, and 40 ng d5-2-AG. Following centrifugation at 4°C, the organic layer was removed and brought up to 8 ml with the same buffer and centrifuged again. The resulting organic layer was dried down with argon and resuspended with 100 μl of 2∶1 CHCl3:MeOH and 10 μl was injected into the Thermo TSQ Quantum Access Triple Quadropole mass spectrometer. LC separation was achieved on a Gemini C18 (50×2 mm×5 μm) equipped with a Gemini C18 SecurityGuard precolumn (4 mm length ×2 mm internal diameter). Mobile phase A consisted of 95∶5% v:v H20:MeOH while mobile phase B was composed of 60∶35∶5 v:v:v i-PrOH:MeOH:H2O and quantification was performed in the positive ion mode with the voltage set at 4 kV. 0.1% formic acid was added to assist in ionization. The sheath pressure was 30 and the capillary was set at 270 °C. The flow rate was 100 μl/min. The gradient started at 0% B and increased to 100% B over 15 min followed by an isocratic gradient of 100% B for 10 min, and was equilibrated for 15 min at 0% B.
# [3] = test system: rectal temperature in mice; assay: Rectal temperature; type: in vivo, mouse; conditions: 20 mg/kg, i.p., baseline vs 90 min
# Procedure: Rectal temperature was measured at baseline and 90 min following vehicle or drug administration, by inserting a thermocouple probe 1.5 cm into the rectum and the temperature was read using a thermocouple meter (Kent Scientific).
# [4] = test system: acetic acid-induced writhing in mice; assay: Acetic acid-induced writhing; type: in vivo, mouse
# Procedure: Mice were acclimated to the laboratory environment for at least two hours and were habituated to the testing chamber for 30 min prior to acetic acid challenge. SBFI26, SBFI50, SBFI60, and SBFI62 (20 mg/kg) were administered via the subcutaneous route 60 min before acetic acid. Rimonabant, SR144528, GW6471, and naloxone were given 10 min before the inhibitors via the subcutaneous route. The mice subsequently received an i.p. injection of acetic acid (0.6% in sterile saline, 10 μl/g) and were placed in observation chambers. Abdominal stretches (marked by extension of the body and hind limbs) were counted for 20 min starting at 5 min post-injection.
# HeLa cells = assay: Cytotoxicity, MTT colorimetric assay; type: cell-based; conditions: 24 hr incubation, n = 3
# Procedure: Cytotoxicity of the FABP inhibitors SBFI26 and BMS309403 were examined using the MTT [3-(4,5-dimethylthiazol-2-yl)-2,5 diphenyl tetrazolium bromide] colorimetric assay. HeLa cells were seeded into 96-well plates (15,000 cells/well) and incubated for 24 hours at 37°C in DMEM supplemented with 10% FBS, penicillin (100 U/mL) and streptomycin (100 μg/mL). The cells were subsequently washed with PBS and treated with serum-free DMEM containing 10 nM to 1 mM SBFI26, BMS309403, or 5 mM hydrogen peroxide as a positive control. Following a 24 hr incubation, the cells were washed with PBS and treated with MTT (0.5 mg/mL in PBS) for 4 hrs. The cells were subsequently solubilized using DMSO and the absorbance was read at 562 nm in a microplate reader.
# [5] = test system: carrageenan-induced thermal hyperalgesia and paw edema in mice; assay: Carrageenan-induced paw edema and thermal hyperalgesia; type: in vivo, mouse; conditions: 20 mg/kg, i.p.
# Procedure: Paw edema was induced by injecting 1% λ-carrageenan (20 μl, in sterile saline) into the plantar surface of the left hind paw using a 30 gauge needle attached to a glass syringe (Hamilton Company). Paw diameters were measured before carrageenan injection and 4 or 24 hours after injection using digital electronic calipers (Fisher) and expressed to the nearest ± 0.01 mm. SBFI26, SBFI50, SBFI60, and SBFI62 were dissolved in DMSO:cremophor-EL:saline (4% DMSO:10% Cremophor-EL) and administered (20 mg/kg, i.p.) 60 min prior to injection of carrageenan. Receptor antagonists were injected 10 min before the inhibitors. Rimonabant and SR144528 (3 mg/kg, i.p.) were dissolved in ethanol:cremophor-EL:saline (1∶1∶18) while GW6471 (4 mg/kg, i.p.) was dissolved in DMSO:cremophor-EL:saline (2% DMSO:5% Cremophor-EL). Edema is reported as the change in paw diameter at 24 hr compared to the baseline. Thermal hyperalgesia was measured using the Hargreaves plantar apparatus (Ugo Basile) as previously reported.
# Sequence of FABP7 (O15540 whole entry, species assumed): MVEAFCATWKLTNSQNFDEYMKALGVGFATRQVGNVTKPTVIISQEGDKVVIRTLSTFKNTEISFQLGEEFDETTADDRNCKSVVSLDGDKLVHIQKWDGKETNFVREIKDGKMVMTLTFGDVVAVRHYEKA
compound,measurement,setting,value
"O=C(O)C1C(c2ccccc2)C(C(=O)Oc2cccc3ccccc23)C1c1ccccc1 (stereo not drawn) [SBFI26, alpha-2,4-diphenylcyclobutane-1,3-dicarboxylic acid mono-1-naphthyl ester]",Ki,FABP7,400 nM
same,Effect upon first phase of formalin-induced nociception,[1]; first phase 0–5 min,reduced
same,Effect upon second phase of formalin-induced nociception,[1]; second phase ∼15–45 min,reduced
same,Brain 2-AG levels,[2]; 90 min,unaffected
same,Brain OEA levels,[2]; 90 min,unaffected
same,Brain PEA levels,[2]; 90 min,unaffected
same,Brain AEA levels,[2]; tissues harvested 90 min after administration,significantly elevated
same,Rectal temperature,[3],does not reduce
same,Effect upon acetic acid-induced writhing,"[4]; 20 mg/kg, subcutaneous, 60 min before acetic acid",significantly reduced
same,Antinociceptive effects in the acetic acid test after pretreatment with PPARα antagonist GW6471,[4]; GW6471 4 mg/kg,blocked
same,Antinociceptive effects in the acetic acid test after pretreatment with CB2 antagonist SR144528,[4]; SR144528 3 mg/kg,failed to reverse
same,Dose of near maximal efficacy in acetic acid writhing,[4]; dose response analysis,20 mg/kg
same,Antinociceptive effects in the acetic acid test after pretreatment with opioid antagonist naloxone,[4]; naloxone 2 mg/kg,failed to reverse
same,Antinociceptive effects in the acetic acid test after pretreatment with CB1 antagonist rimonabant,[4]; rimonabant 3 mg/kg 10 min before inhibitor,completely blocked
same,Cytotoxicity _50 values,HeLa cells,31.1 ± 4.1 µM
same,Effect upon carrageenan-induced paw edema,[5],reduced
same,Effect upon carrageenan-induced thermal hyperalgesia,[5],reduced
